Measurements reported in patent US4243678A, “Acylhydrocarbylaminoalkanoic acids, compositions and uses” (Byk Gulden Lomberg Chemische Fabrik GmbH, priority 1977, dated 1981).
Read-outs that look alike come from different tables or passages of the source.

Key:
[1] = Determination of toxicity (lethal action on the mouse after intraperitoneal application); format: in vivo; details: in vivo, ip
Procedure: The toxicity investigations are carried out on female NMRI mice (body weight 22 to 26 g). The animals (5 animals per dose) are given food and water ad lib. Different doses of the substances are administered intraperitoneally. The duration of observation is 14 days. The LD50, i.e. the dose at which 50% of the animals die, is determined graphically from the dose/effect curve.

liver damage by CCl4 = test: Antihepatotoxic effect: duration of hexobarbital sleep of the rat after liver damage by CCl4; details: Rattus norvegicus, po; for ED25: read-out: ED25 antihepatotoxic effect (shortens hexobarbital narcosis by 25%)
Procedure: (§1) The compounds to be tested are administered 1 hour prior to the administration of CCl4 orally in a liquid volume of 10 ml/kg.
(§2) The antihepatotoxic effect of the compounds to be tested (sodium salts in aqueous solution) is determined by the reduction of the prolongation of sleeping period caused by the CCl4 liver cell damage in the groups treated, as compared with the prolongation of the sleeping period of the CCl4 control group (=100%). […]

[2] = as above; details: rat, in vivo
Procedure: as §1, §2

pancreatic secretion = test: Influence on pancreatic secretion of the narcotized rat; format: in vivo, rat (male Sprague-Dawley); details: 0.5 h
Text: (§3) Male Sprague-Dawley rats (body weight from 250 to 300 g) are narcotized with 1.2 g/kg urethane i.m. Then the abdominal cavity is opened medially, the bile duct is ligatured shortly above the place where it leads into the duodenum and also near to the hepatic duct, and both sections are catheterized towards the liver.
(§4) As in the rat all the pancreatic ducts lead out into the central section of the bile duct; it is possible in this way to discharge the pancreatic secretion separately from the distal (ligatured) section and the bile separately from the proximal section of the bile duct.
(§5) The quantities of pancreatic juice and bile juice obtained are measured at intervals of 30 minutes over a period from 2 hours before to 3 hours after the intraduodenal (V. jugularis externa) administration of the compounds to be tested (quantity of liquid administered 5 ml/kg).
(§6) The body temperature of the animals is maintained at 36° to 38° C. by means of electric blankets and radiation; the temperature is monitored rectally.
(§7) The liquid volumes of the 30-minute fractions after the administration of the substance are related in each case to the quantity of bile or pancreatic juice secreted prior to the application of the substance (=100%, mean of the last two measurements). The maximum percentage increase in the pancreatic or bile secretion is represented in dependence upon dose, and from this the ED50 is determined by interpolation.

[3] = as above; format: in vivo, rat (male Sprague-Dawley); details: in vivo, LD50 mouse i.p. / ED50 rat i.d.
Text: as §3, §4, §5, §6, §7

[4] = tested on: glucose formation from lactate and pyruvate in isolated perfused liver; test: Inhibition of the formation of glucose from lactate and pyruvate in the isolated perfused rat liver; set-up: species or system rat (male Sprague-Dawley); details: for Glucose formation, % change: isolated perfused liver of fasting rats; for ED50 inhibition of formation of glucose from lactate and pyruvate: from 4 concentrations, 0.02 to 1.00 mmol/liter
Procedure: For this purpose young male Sprague-Dawley rats (160 to 200 g) are used. The rats are kept in cages of up to 5 animals in a temperature-controlled room (23° C.) with a fixed day/night rhythm (12/12 hours).
Food is withheld from the animals for from 20 to 22 hours prior to the operation. They are allowed to take water ad lib. The operation and the perfusion of the liver are carried out using the technique of R. Scholz et al. [Eur. J. Biochem. 38 (1973) 64 to 72]. The perfusion liquid used is Krebs-Henseleit bicarbonate buffer (pH 7.4), which is saturated with an oxygen/carbon dioxide mixture (95/5) and contains 1.6 mmol/liter of L-lactate and 0.2 mmol/liter of pyruvate. The perfusion liquid is pumped into the liver via a cannula inserted into the portal vein. The effluent perfusion liquid is collected via a cannula inserted into the Vena cava. The liver is perfused for about 2 hours. The test compounds are infused for 16 minutes each from the 32nd to the […] after the perfusion in increasing concentrations (0.02 to 1.00 mmol/liter).
Samples of the effluent perfusion liquid are collected at one-minute intervals and analyzed for glucose, lactate and pyruvate (using standard enzymatic methods). The percentages shown in Table VIII relate to the condition occurring before and after the administration of the compounds, the changes caused solely by lactate and pyruvate being set as being equal to 100%.

[5] = TQ LD50/ED25, antihepatotoxic effect, LD50 mouse i.p. / ED25 rat p.o., Table XI
[6] = narcotized rat, i.d., liquid volume, 30 minute fraction, Table X, read-out: ED50 pancreatic secretion (dose which brings about an increase in pancreatic secretion by a maximum of 50%)
[7] = Table X, read-out: TQ LD50/ED50, pancreatic secretion
[8] = read-out: ED50 antihepatotoxic effect (shortens hexobarbital narcosis by 50%)
[9] = TQ LD50/ED50, antihepatotoxic effect, LD50 mouse i.p. / ED50 rat p.o., Table XI
[10] = read-out: ED50 antihepatotoxic effect (dose which shortens the hexobarbital narcosis by 50%)
[11] = TQ (LD50/ED50), antihepatotoxic effect, LD50 mouse i.p. / ED50 rat p.o., Table III
[12] = Rattus norvegicus, read-out: ED50 pancreatic secretion (dose which brings about an increase in the pancreatic secretion by a maximum of 50%)
[13] = Table I, read-out: TQ (LD50/ED50), pancreatic secretion
[14] = TQ LD50/ED25, antihepatotoxic effect, LD50 mouse i.p. / ED25 rat p.o., Table V
[15] = narcotized rat, i.d., liquid volume, 30 min fraction, Table VII, read-out: ED50 pancreatic secretion (dose which brings about an increase in pancreatic secretion of a maximum of 50%)
[16] = Table VII, read-out: TQ [LD50/ED50], pancreatic secretion
[17] = 0.2 mmole/liter in the perfusate, Table VIII

SMILES	LD50 at 336 h ([1]; mouse i.p., Table X)	ED25 (liver damage by CCl4)	selectivity ratio [2, 5]	ED50 (pancreatic secretion; [6])	selectivity ratio [3, 7]	LD50 at 336 h ([1]; mouse, Table I)	ED50 (pancreatic secretion; [12])	selectivity ratio [3, 13]	other results
COc1ccc(Cl)cc1C(=O)N(CCCC(=O)O)c1cccc2ccccc12 [Serial No. 44, 4-{5-chloro-2-methoxy-[N-(α-naphthyl)]benzamido}butyric acid]	270 mg/kg	~30 mg/kg	~9	< 1 mg/kg	> 270				
O=C(O)CCCCCN(C(=O)c1ccc(Cl)cc1)c1cccc2ccccc12 [compound 48]	160 mg/kg	~7 mg/kg	~22.9	~1 mg/kg	~160				
CC(=O)N(CCCC(=O)O)c1cccc2ccccc12 [Serial No. 39, 4-[N-(α-naphthyl)acetamido]butyric acid]	750 mg/kg	< 10 mg/kg	> 75	~1.5 mg/kg	~500				ED50 (liver damage by CCl4; [8]): 50 mg/kg; selectivity ratio [2, 9]: 15
CC(=O)N(CCCC(=O)O)C1CCCc2ccccc21 (centres unmarked) [compound 49]	> 200 mg/kg	< 10 mg/kg	> 20	~5 mg/kg	≥ 40				
O=C(O)CCCN(C(=O)c1ccc(Cl)cc1)C(c1ccccc1)c1ccccc1 [Serial No. 12, N-(p-chloro)benzoyl-4-benzhydrylaminobutyric acid]						250 mg/kg	~0.1 mg/kg	~2500	ED50 (liver damage by CCl4; [10]): 10 mg/kg; selectivity ratio [2, 11]: 25
O=C(O)CCCN(Cc1ccccc1)C(=O)c1ccc(Cl)cc1 [Serial No. 15, N-(p-chloro)benzoyl-4-benzylaminobutyric acid]						350 mg/kg	1.5 mg/kg	233	
O=C(O)CCCN(C(=O)c1ccc(Cl)cc1)c1ccc(C2CCCCC2)cc1 [Serial No. 37, 4-[p-chloro-N-(1',2',3',4',5',6'-hexahydrobiphenyl-4-yl)benzamido]butyric acid]		≤ 10 mg/kg							LD50 at 336 h ([1]; mouse i.p., Table V): ~150 mg/kg; selectivity ratio [2, 14]: ≥ 15; ED50 (pancreatic secretion; [15]): 1.5 mg/kg; selectivity ratio [3, 16]: ~100
CC(c1ccccc1)N(CCCCCC(=O)O)C(=O)c1ccc(Cl)cc1 (centres unmarked) [Serial No. 13, N-(p-chloro)benzoyl-6-(1-phenylethylamino)caproic acid]						220 mg/kg	2 mg/kg	110	
O=C(O)CCCCN(C(=O)c1ccc(Cl)cc1)c1cccc2ccccc12 [Serial No. 47, 5-{p-chloro-[N-(α-naphthyl)]benzamido}valeric acid]	170 mg/kg			2 mg/kg	85				Glucose formation, % change ([4]; 0.2 mmol/liter in the perfusate, Table XIII): -86%; ED50 inhibition of formation of glucose from lactate and pyruvate ([4]; Table XIII): 31 µg/mL
O=C(O)CCCN(C(=O)c1ccc(Cl)cc1)C1CCCCCCC1 [Serial No. 18, N-(p-chloro)benzoyl-4-cyclooctylaminobutyric acid]						150 mg/kg	2.5 mg/kg	60	ED50 (liver damage by CCl4; [10]): 8 mg/kg; selectivity ratio [2, 11]: 18.8
O=C(O)CCCCN(C(=O)c1ccc(Cl)cc1)c1ccccc1-c1ccccc1 [Serial No. 28, 5-[p-chloro-N-(biphenyl-2-yl)benzamido]valeric acid]		3 mg/kg							LD50 at 336 h ([1]; mouse i.p., Table V): 140 mg/kg; ED50 (liver damage by CCl4; [8]): 12 mg/kg; selectivity ratio [2, 14]: 46.7; selectivity ratio ([2]; TQ LD50/ED50, antihepatotoxic effect, LD50 mouse i.p. / ED50 rat p.o., Table V): 11.7; Glucose formation, % change [4, 17]: -89%; ED50 inhibition of formation of glucose from lactate and pyruvate ([4]; Table VIII): 25 µg/mL
O=C(O)CCCCCN(C(=O)c1ccc(Cl)cc1Cl)c1ccccc1-c1ccccc1 [Serial No. 29, 6-[2,4-dichloro-N-(biphenyl-2-yl)benzamido]caproic acid]									LD50 at 336 h ([1]; mouse i.p., Table VII): ~250 mg/kg; ED50 (pancreatic secretion; [15]): 1.7 mg/kg; selectivity ratio [3, 16]: ~147; Glucose formation, % change [4, 17]: -93%; ED50 inhibition of formation of glucose from lactate and pyruvate ([4]; Table VIII): 23 µg/mL
COc1ccc2cccc(N(CCCC(=O)O)C(=O)c3ccc(Cl)cc3)c2c1 [Serial No. 46, 4-{p-chloro-[N-(7-methoxy-1-naphthyl)]benzamido}butyric acid]	120 mg/kg	7 mg/kg	17.1	0.3 mg/kg	400				ED50 (liver damage by CCl4; [8]): 16 mg/kg; selectivity ratio [2, 9]: 7.5
C#CC1(N(CCCC(=O)O)C(C)=O)CCCCC1 [Serial No. 8, N-acetyl-4-[(1-ethynylcyclohexyl-1)-amino]butyric acid]						> 1000 mg/kg	10 mg/kg	> 100	
O=C(O)CCCN(C(=O)c1ccc(Cl)cc1)C12CC3CC(CC(C3)C1)C2 [Serial No. 6, N-(p-chloro)benzoyl-4-(1-adamantyl)aminobutyric acid]						200 mg/kg	1 mg/kg	200	
COc1ccc(Cl)cc1C(=O)N(CCCC(=O)O)c1ccccc1-c1ccccc1 [Serial No. 33, 4-[2-methoxy-5-chloro-N-(biphenyl-2-yl)benzamido]butyric acid]									LD50 at 336 h ([1]; mouse i.p., Table VII): 170 mg/kg; ED50 (pancreatic secretion; [15]): 2 mg/kg; selectivity ratio [3, 16]: 85
CC(C)(C)CC(C)(C)N(CCCC(=O)O)C(=O)c1ccc(Cl)cc1 [Serial No. 7, N-(p-chloro)benzoyl-4-[(1,1,3,3-tetramethylbutyl)amino]butyric acid]						220 mg/kg	2 mg/kg	110	
O=C(O)CCCN(C(=O)c1cccc(C(F)(F)F)c1)c1cccc2ccccc12 [compound 42]	160 mg/kg			< 1 mg/kg	> 160				
CC(C)C(=O)N(CCCCCC(=O)O)c1ccccc1-c1ccccc1 [Serial No. 34, 6-[N-(biphenyl-2-yl)isobutyramido]caproic acid]		< 30 mg/kg							LD50 at 336 h ([1]; mouse i.p., Table V): 260 mg/kg; selectivity ratio [2, 14]: 8.7
O=C(O)CCCN(C(=O)c1ccc(Cl)cc1Cl)c1cccc2ccccc12 [Serial No. 41, 4-{2,4-dichloro-[N-(α-naphthyl)]benzamido}butyric acid]	240 mg/kg	10 mg/kg	24	7.5 mg/kg	32				ED50 (liver damage by CCl4; [8]): 26 mg/kg; selectivity ratio [2, 9]: 9.2
